# Assay results taken from patent US20260049072A1, “HETEROCYCLIC COMPOUND FOR INDUCING DEGRADATION OF MUTANT KRAS PROTEIN” (Astellas Pharma Inc., priority 2022, published 2026).
# System: PA-TU-8902 cells
# Experiment: Non-anchorage-dependent cell growth inhibition (spheroid 3D culture), PA-TU-8902
# Format: cell-based, human
# Settings: Homo sapiens, PaTu 8902, 144 h; KRAS G12V mutant-positive, 3D spheroid, six days, CellTiter-Glo 2.0; read-out: PA-TU-8902 IC50
# Method: Test Example 3: Evaluation of Non-Anchorage-Dependent Cell Growth Inhibitory Activity on Human KRAS G12V Mutant-Positive Pancreatic Cancer Line PA-TU-8902, Human KRAS G12D Mutant-Positive Pancreatic Cancer Line AsPC-1 or Human KRAS G12C Mutant-Positive Pancreatic Cancer Line MIA PaCa-2
# The non-anchorage-dependent cell growth inhibitory activities of subject compounds were evaluated by spheroid 3D cell culture.
# PA-TU-8902 cells, AsPC-1 cells or MIA PaCa-2 cells (RIKEN BRC, RCB2094) were seeded at 36 µL/well on a low-cell-adhesive round bottom 384-well plate (Prime Surface: from Sumitomo Bakelite) to give 5×10^2 cells per well. The PA-TU-8902 cells were under the same conditions as in Test Example 1-1, and the AsPC-1 cells were under the same conditions as in Test Example 1-2. For the MIA PaCa-2 cells, RPMI-1640 medium containing 10% fetal bovine serum was used in the presence of 5% CO2 at 37° C.
# The next day, the subject compounds (6-9 points having final concentrations in the range of 3 μM to 0.3 nM) and DMSO, which was the solvent for the subject compounds, as a negative control were diluted 100-fold with a fresh medium and were each added at 4 μL per well. After culturing in the presence of 5% CO2 at 37° C. for six days, CellTiter-Glo 2.0 (from Promega) was added at 20 μL per well. After stirring with a plate mixer (from FINEPCR) at normal temperature for an hour, the luminescent signals were measured with ARVO X3 (from PerkinElmer).
# With the signaling value in treatment with DMSO taken as 0% inhibition and with the signaling value in the medium alone without cells taken as 100% inhibition, the 50% inhibition values (IC50) were calculated by Sigmoid-Emax model nonlinear regression analysis.
row,Compound,IC50 [nM]
1,"CO[C@@H](C)COc1nc(NC2CN(C(=O)O[C@H]3C[C@@H](N(C)C)C3)C2)c2cc(C3CC3)c(-c3c(C)c(F)cc4[nH]ncc34)c(OCc3ccc(-c4cn([C@H](C(=O)N5C[C@H](O)C[C@H]5C(=O)N[C@@H](CO)c5ccc(-c6scnc6C)nc5)C(C)C)nn4)cc3)c2n1 (atropisomer, axis not shown) [Example 3]",160
2,"CO[C@@H](C)COc1cc(OC2CN(C(=O)N3CC[C@@H](N(C)C)C3)C2)c2cc(C3CC3)c(-c3c(C)c(F)cc4[nH]ncc34)c(OCc3ccc(-c4cn([C@H](C(=O)N5C[C@H](O)C[C@H]5C(=O)N[C@@H](CO)c5ccc(-n6cncn6)cc5)C(C)C)nn4)cc3)c2n1 (atropisomer, axis not shown) [Example 7]",81
3,"CO[C@@H](C)COc1cc(OC2CN(C(=O)N3CC(CN(C)C)C3)C2)c2cc(C3CC3)c(-c3c(C)c(F)cc4[nH]ncc34)c(OCc3ccc(-c4cn([C@H](C(=O)N5C[C@H](O)C[C@H]5C(=O)N[C@@H](CO)c5ccc(N6CCOC6=O)cc5)C(C)C)nn4)cc3)c2n1 (atropisomer, axis not shown) [Example 8]",102
4,"COC(C)(C)COc1cc(OC2CN(C(=O)N[C@H]3C[C@@H](N(C)C)C3)C2)c2cc(C3CC3)c(-c3c(C)c(F)cc4[nH]ncc34)c(OCc3ccc(-c4cn([C@H](C(=O)N5C[C@H](O)C[C@H]5C(=O)N[C@@H](CO)c5ccc(-n6cncn6)cc5)C(C)C)nn4)cc3)c2n1 (atropisomer, axis not shown) [Example 10]",69
5,"CO[C@@H](C)COc1nc(OC2CN(C(=O)NCCN3CCCC3)C2)c2cc(C3CC3)c(-c3c(C)c(F)cc4[nH]ncc34)c(OCc3ccc(-c4cn([C@H](C(=O)N5C[C@H](O)C[C@H]5C(=O)N[C@@H](CO)c5ccc(-c6scnc6C)cc5)C(C)C)nn4)cc3)c2n1 (atropisomer, axis not shown) [Example 22]",65
6,"CO[C@@H](C)COc1nc(N(C)C2CN(C(=O)CCCN(C)C)C2)c2cc(C3CC3)c(-c3c(C)c(F)cc4[nH]ncc34)c(OCc3ccc(-c4cn([C@H](C(=O)N5C[C@H](O)C[C@H]5C(=O)N[C@@H](CO)c5ccc(-c6scnc6C)cc5)C(C)C)nn4)cc3)c2n1 (atropisomer, axis not shown) [Example 24]",125
7,"CO[C@@H](C)COc1nc(NC2CN(C(=O)N3CCN(C)CC3)C2)c2cc(C3CC3)c(-c3c(C)c(F)cc4[nH]ncc34)c(OCc3ccc(-c4cn([C@H](C(=O)N5C[C@H](O)C[C@H]5C(=O)N[C@@H](CO)c5ccc(-n6cncn6)cc5)C(C)C)nn4)cc3)c2n1 (atropisomer, axis not shown) [Example 27]",122
8,"Cc1ncsc1-c1ccc([C@H](CO)NC(=O)[C@@H]2C[C@@H](O)CN2C(=O)[C@H](C(C)C)n2cc(-c3ccc(COc4c(-c5c(C)c(F)cc6[nH]ncc56)c(C5CC5)cc5c(OC6CN(C(=O)NCCN(C)C)C6)nc(OC6CCN(CC(F)F)CC6)nc45)cc3)nn2)cc1 (atropisomer, axis not shown) [Example 31]",67
9,"Cc1c(F)cc2[nH]ncc2c1-c1c(C2CC2)cc2c(NC3CN(C(=O)NCCN(C)C)C3)nc(OC[C@@H]3CCCO3)nc2c1OCc1ccc(-c2cn([C@H](C(=O)N3C[C@H](O)C[C@H]3C(=O)N[C@@H](CO)c3ccc(-n4cncn4)cc3)C(C)C)nn2)cc1 (atropisomer, axis not shown) [Example 32]",105
10,"Cc1ncsc1-c1ccc([C@H](CO)NC(=O)[C@@H]2C[C@@H](O)CN2C(=O)[C@H](C(C)C)n2cc(-c3ccc(COc4c(-c5c(C)c(F)cc6[nH]ncc56)c(C5CC5)cc5c(N(C)C6CN(C(=O)O[C@H]7CCN(C)C7)C6)nc(OC6CCOCC6)nc45)cc3)nn2)cc1 (atropisomer, axis not shown) [Example 33]",103
11,"CO[C@@H](C)COc1nc(N2CC[C@H]2C(N)=O)c2cc(C3CC3)c(-c3c(C)c(F)cc4[nH]ncc34)c(OCc3ccc(-c4cn([C@H](C(=O)N5C[C@H](O)C[C@H]5C(=O)N[C@@H](CN(C)C)c5ccc(-c6scnc6C)cc5)C(C)C)nn4)cc3)c2n1 (atropisomer, axis not shown) [Example 37]",78
12,"CO[C@@H](C)COc1nc(NC2CN(C(=O)OCCN(C)C)C2)c2cc(C3CC3)c(-c3c(C)c(F)cc4[nH]ncc34)c(OCc3ccc(-c4cn([C@H](C(=O)N5C[C@H](O)C[C@H]5C(=O)N[C@@H](CO)c5ccc(-c6scnc6C)cc5)C(C)C)nn4)cc3)c2n1 (atropisomer, axis not shown; (M)) [Example 34, 2-(dimethylamino)ethyl 3-({(7M)-6-cyclopropyl-7-(6-fluoro-5-methyl-H-indazol-4-yl)-8-{[4-(1-{(2S)-1-[(2S,4R)-4-hydroxy-2-({(1R)-2-hydroxy-1-[4-(4-methyl-1,3-thiazol-5-yl)phenyl]ethyl}carbamoyl)pyrrolidin-1-yl]-3-methyl-1-oxobutan-2-yl}-1H-1,2,3-triazol-4-yl)phenyl]methoxy}-2-[(2S)-2-methoxypropoxy]quinazolin-4-yl}amino)azetidine-1-carboxylate]",109
13,"CC[C@H](C)[C@@H](C(=O)N1C[C@H](O)C[C@H]1C(=O)N[C@@H](CO)c1ccc(-c2scnc2C)cc1)n1cc(-c2ccc(COc3c(-c4c(C)c(F)cc5[nH]ncc45)c(C4CC4)cc4c(O[C@H]5CCN(C(=O)NCCN(C)C)C5)nc(OC[C@H](C)OC)nc34)cc2)nn1 (single isomer, unassigned) [Example 28]",159
14,Cc1ncsc1-c1ccc([C@H](CO)NC(=O)[C@@H]2C[C@@H](O)CN2C(=O)[C@H](C(C)C)n2cc(-c3ccc(COc4c(-c5c(C)c(F)cc6[nH]ncc56)c(C5CC5)cc5c(OC6CN(C(=O)NCCO)C6)nc(OC6CCOCC6)nc45)cc3)nn2)cc1 [Example 16],261
15,Cc1c(F)cc2[nH]ncc2c1-c1c(C2CC2)cc2c(OC3CN(C(=O)NCCN(C)C)C3)nc(OC3CCOCC3)nc2c1OCc1ccc(-c2cn([C@H](C(=O)N3C[C@H](O)C[C@H]3C(=O)N[C@@H](CO)c3ccc(-n4cccn4)cc3)C(C)C)nn2)cc1 [Example 30],235
16,Cc1ncsc1-c1ccc([C@H](CO)NC(=O)[C@@H]2C[C@@H](O)CN2C(=O)[C@H](C(C)C)n2cc(-c3ccc(COc4c(-c5c(C)c(F)cc6[nH]ncc56)c(C5CC5)cc5c(OC6CN(C(=O)NCCN(C)C)C6)nc(OCC(C)(C)CN(C)C)nc45)cc3)nn2)cc1 [Example 36],143
17,Cc1ncsc1-c1ccc([C@H](CO)NC(=O)[C@@H]2C[C@@H](O)CN2C(=O)[C@H](C(C)C)n2cc(-c3ccc(COc4c(-c5c(C)c(F)cc6[nH]ncc56)c(C5CC5)cc5c(N6CC(C#N)C6)nc(OC[C@@H]6CCN(C)C6)nc45)cc3)nn2)cc1 [Example 38],177
18,"Cc1ncsc1-c1ccc([C@H](CCO)NC(=O)[C@@H]2C[C@@H](O)CN2C(=O)[C@H](C(C)C)n2cc(-c3ccc(COc4c(-c5c(C)c(F)cc6[nH]ncc56)c(C5CC5)cc5c(NC6CN(C(=O)NCCN(C)C)C6)nc(OC6CCOCC6)nc45)cc3)nn2)cc1 [Example 39, (4R)-1-[(2S)-2-(4-{4-[({(7M)-6-cyclopropyl-4-[(1-{[2-(dimethylamino)ethyl]carbamoyl}azetidin-3-yl)oxy]-7-(6-fluoro-5-methyl-1H-indazol-4-yl)-2-[(oxan-4-yl)oxy]quinazolin-8-yl}oxy)methyl]phenyl}-1H-1,2,3-triazol-1-yl)-3-methylbutanoyl]-4-hydroxy-N-{(1S)-3-hydroxy-1-[4-(4-methyl-1,3-thiazol-5-yl)phenyl]propyl}-L-prolinamide]",52

# Same assay, conditions: KRAS G12V mutant-positive, 3D spheroid, six days, CellTiter-Glo 2.0; read-out: PA-TU-8902 IC50
row,Compound,IC50 [nM]
1,"CO[C@@H](C)COc1cc(OC2CN(C(=O)NCCN(C)C)C2)c2cc(C3CC3)c(-c3c(C)c(F)cc4[nH]ncc34)c(OCc3ccc(-c4cn([C@H](C(=O)N5C[C@H](O)C[C@H]5C(=O)N[C@@H](CO)c5ccc(-c6scnc6C)cc5)C(C)C)nn4)cc3)c2n1 [Example 43, (4R)-1-[(2S)-2-(4-{4-[({(7M)-6-cyclopropyl-4-[(1-{[2-(dimethylamino)ethyl]carbamoyl}azetidin-3-yl)oxy]-7-(6-fluoro-5-methyl-1H-indazol-4-yl)-2-[(2S)-2-methoxypropoxy]quinolin-8-yl}oxy)methyl]phenyl}-1H-1,2,3-triazol-1-yl)-3-methylbutanoyl]-4-hydroxy-N-{(1R)-2-hydroxy-1-[4-(4-methyl-1,3-thiazol-5-yl)phenyl]ethyl}-L-prolinamide]",61
